Results on seven compounds are retold here after PubChem BioAssay (NCI).

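Protocol summary: plate cells (96-well), add compound at 5 concentrations, incubate 48 h, interpolate endpoints linearly. The concentration for full growth arrest is given as TGI.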 A value given as a limit tells only on which side of the number the result lay.

Holding throughout (test): inhibition of tumour cell growth, NCI panel, 48 h
In test [1] the test system is A549 NSCLC.
The test system of test [2] is ACHN renal.
Test [3] relates to BT-549 breast.
Test [4] has as its system COLO 205 colon.
The test system of test [5] is HOP-92 NSCLC.
Test [6] concerns HS 578T breast.
For test [7], the system named is HT29 colon.
Test [8] concerns IGROV1 ovarian.
Test [9] relates to KM12 colon.
In test [10] the test system is NCI/ADR-RES ovarian.
Test [11] concerns OVCAR-3 ovarian.
The test system of test [12] is OVCAR-8 ovarian.
The test system of test [13] is PC-3 prostate.
The subject of test [14] is SF-268 CNS.
Test [15] relates to SK-MEL-28 melanoma.
Test [16] concerns SK-MEL-5 melanoma.
Test [17] has as its system SNB-19 CNS.
In test [18] the test system is SR leukemia.
Test [19] relates to T-47D breast.
Test [20] deals with UO-31 renal.

On to `CC/C(=N/O)c1ccc(Br)s1`, for which the TGI in [1], in test [2], in [3], in test [4], in [5] and in test [6] was above 100 µM each time. For the same compound, the TGI in test [7], in [8], in test [9], in [10], in [11] and in test [12] was above 100 µM in each case. The TGI in test [13], in [14], in [15], in [16], in [17] and in test [18] was above 100 µM each time. Also, the TGI in [19] and in test [20] was above 100 µM throughout.

Turning to `CSc1ccc(C2C(Cl)C(=O)N2NC(=O)c2c(Cl)c(Cl)c(Cl)c(Cl)c2-c2nc3ccccc3[nH]2)cc1` (configuration not stated), the TGI in test [1] is above 100 µM; in test [2], 71.4 µM; in test [3], 48.1 µM; in test [4], 40.6 µM; in test [5] it was 25.1 µM; in test [6], above 100 µM. Besides, the TGI in [7] was above 100 µM; in test [8], 2.14 µM; in test [9], 34.8 µM; in test [10], above 100 µM; in test [11], 50.7 µM; in test [12], 59.9 µM. Also, the TGI in test [13] was 45.8 µM; in test [14], 64.4 µM; in test [15], 44.4 µM; in test [16] it was 35.7 µM; in test [17], 73.4 µM; in test [18] it was above 100 µM. Further, the TGI is 12.3 µM in test [19] and above 100 µM in [20].

Take `N#Cc1nc(COCCOCc2ccccc2)oc1N`: the TGI in [1], in [2], in test [3], in test [4], in [5] and in test [6] was above 100 µM in each case. Further, the TGI in [7], in test [8], in test [9], in [10], in test [11] and in [12] was above 100 µM each time. For the same compound, the TGI in test [13], in test [14], in test [15], in test [16], in test [17] and in [18] was above 100 µM throughout. Further, the TGI in test [19] and in test [20] was above 100 µM throughout.

Take `O=P(O)(O)CN1CCN(CP(=O)(O)O)CCN(CP(=O)(O)O)CCN(CP(=O)(O)O)CC1`: the TGI in [1], in [2], in [3], in [4], in test [5] and in test [6] was above 100 µM each time. The TGI in test [7], in test [8], in test [9], in [10], in [11] and in [12] was above 100 µM each time. Further, the TGI in [13] is above 100 µM; in [14], above 100 µM; in test [17], above 100 µM; in [18], 95.9 µM; in [19], above 100 µM; in test [20] it was above 100 µM.

As to `O=C1NNC(=O)C2C3c4ccccc4C(c4ccccc43)C12` (configuration not stated), the TGI in test [1], in [2], in test [3], in test [4], in test [6] and in test [7] was above 100 µM in each case. Further, the TGI in test [8], in test [9], in test [10], in [11], in test [12] and in [13] was above 100 µM throughout. Moreover, the TGI in test [14], in test [15], in [16], in [17], in test [18] and in test [19] was above 100 µM each time. In [20], the TGI is above 100 µM.

Consider `O=C(c1ccccc1)c1c2ccccn2c2cccc[n+]12`, for which the TGI in [1], in test [3], in test [4], in test [5], in test [6] and in [7] was above 100 µM throughout. For the same compound, the TGI in test [8], in [9], in test [10], in [11], in [12] and in test [13] was above 100 µM throughout. The TGI in test [14], in test [15], in test [16], in test [18] and in test [19] was above 100 µM throughout.

As for `Cc1nc(N)c(N2CCNCC2)c(=O)[nH]1`, the TGI in test [1], in test [2], in [3], in [4], in [5] and in test [6] was above 100 µM throughout. The TGI in test [7], in test [9], in [10], in test [11], in [12] and in [13] was above 100 µM in each case. The TGI in test [14], in [15], in test [17], in test [18], in test [19] and in [20] was above 100 µM in each case.
